In patent US20050124498A1, “Halobenzyl substituted phenylaceto esters and amides and use thereof for prevention of harmful organisms” (priority 2002, published 2005) one finds chromatographic logP and pest or weed control data, which are given here for 40 compounds.

One series relates to Sphaerotheca fuliginea. Put plainly: Sphaerotheca test (cucumber)/protective. In kind it is in vivo. The following applies: Podosphaera fuliginea, 168 h, protective, application rate 100 g/ha, evaluation 7 days after inoculation, read-out: efficacy. As to the method: (§1) Sphaerotheca test (cucumber)/protective [table] To produce a suitable preparation of active compound, 1 part by weight of active compound is mixed with the stated amounts of solvent and emulsifier, and the concentrate is diluted with water to the desired concentration. To test for protective activity, young plants are sprayed with the preparation of active compound at the stated application rate. After the spray coating has dried on, the plants are inoculated with an aqueous spore suspension of Sphaerotheca fuliginea. The plants are then placed in a greenhouse at about 23° C. and about 70% relative atmospheric humidity.

Series [1] relates to apple scab pathogen Venturia inaequalis. In words: Venturia test (apple)/protective. The series is classed as in vivo. The settings on record: 240 h, protective, application rate 100 g/ha, evaluation 10 days after inoculation, read-out: efficacy. The protocol:
Venturia test (apple)/protective […] To produce a suitable preparation of active compound, 1 part by weight of active compound is mixed with the stated amounts of solvent and emulsifier, and the concentrate is diluted with water to the desired concentration. To test for protective activity, young plants are sprayed with the preparation of active compound at the stated application rate. After the spray coating has dried on, the plants are inoculated with an aqueous conidia suspension of the apple scab pathogen Venturia inaequalis and then remain in an incubation cabin at about 20° C. and 100% relative atmospheric humidity for 1 day. The plants are then placed in a greenhouse at about 21° C. and a relative atmospheric humidity of about 90%.

A further series relates to Phytophthora infestans. Put plainly: whole plant or invertebrate. In kind it is in vivo. The following applies: in Solanum lycopersicum, 72 h, read-out: efficacy.
Series [2] has as its system apple mildew pathogen Podosphaera leucotricha. In words: Podosphaera test (apple)/protective. The settings on record: 240 h, protective, application rate 100 g/ha, evaluation 10 days after inoculation, read-out: efficacy. The series is classed as in vivo. As to the method:
as §1, with “Podosphaera” for “Sphaerotheca”, “(apple)/protective” for “(cucumber)/protective”, “the apple mildew pathogen Podosphaera leucotricha.” for “Sphaerotheca fuliginea.”

Broadly, the chromatographic logP is lipophilicity estimated from chromatographic retention. Lower therefore signals lower lipophilicity. Consider `CO/N=C(/C(=O)OC)c1ccc(F)cc1O` [Example (II-3), methyl (4-fluoro-2-hydroxyphenyl)methoxyiminoacetate], for which the chromatographic logP in the series “physchem” (pH 2, log P (pH 2)) was 2.62.

In the series “physchem” (logP), `CO/N=C(/C(=O)OC)c1c(F)cccc1Oc1cc(C(F)(F)F)ncn1` [Example 53] had a chromatographic logP of 2.91.

The compound `CNC(=O)/C(=N/OC)c1ccc(F)cc1Oc1ncnc(Oc2ccc(Br)cc2C)c1F` [Example 37] displayed a chromatographic logP in “physchem” (logP) of 3.57.

For `CNC(=O)/C(=N/OC)c1ccc(F)cc1O` [Example (II-4), 2-(4-fluoro-2-hydroxyphenyl)-2-methoxyimino-N-methylacetamide], in the series “physchem” (pH 2, log P (pH 2)), the chromatographic logP is 1.56.

The compound `CO/N=C(\C(C)=N\OCc1cccc(F)c1/C(=N\OC)C(=O)OC)c1ccc(F)cc1F` [Example 54] registered a chromatographic logP in “physchem” (logP) of 4.13.

On to `CNC(=O)/C(=N/OC)c1ccc(F)cc1Oc1ncnc(Oc2ccc(SC)c(C)c2)c1F` [Example 28], for which the chromatographic logP in the series “physchem” (logP) was 3.54.

Take `CNC(=O)/C(=N/OC)c1c(F)cccc1COc1ccccc1C` [Example 9, N-methyl-2-(2-fluoro-6-o-tolyloxymethylphenyl)-2-methoxyiminoacetamide]: the chromatographic logP in the series “physchem” (pH 2, log P (pH 2)) worked out at 3.03. Further, the pest or weed control at 100 g/ha with Sphaerotheca fuliginea is not below 98%; in series [1] it was not below 97%; in the series on Phytophthora infestans, not below 86%; in series [2], not below 82%.

For the compound `CNC(=O)/C(=N/OC)c1ccc(F)cc1Oc1ncnc(Oc2ccccc2Cl)c1F` [Example 7, N-methyl-2-{2-[6-(2-chlorophenoxy)-5-fluoropyrimidin-4-yloxy]-4-fluorophenyl}-2-methoxyiminoacetamide], the chromatographic logP in “physchem” (pH 2, log P (pH 2)) was found to be 3.14. For the same compound, the pest or weed control at 100 g/ha in the series on Sphaerotheca fuliginea is not below 98%; in series [1], not below 97%; with Phytophthora infestans, not below 86%.

`CNC(=O)/C(=N/OC)c1ccc(F)cc1Oc1ncnc(Oc2cccc(OC)c2)c1F` [Example 19] displayed a chromatographic logP in the series “physchem” (logP) of 2.91.

The compound `COC(=O)C(=O)c1c(C)cccc1F` [Example (XIX-1), methyl (2-fluoro-6-methylphenyl)oxoacetate] had a chromatographic logP in “physchem” (pH 2, log P (pH 2)) of 2.44.

For `CNC(=O)/C(=N/OC)c1ccc(F)cc1Oc1ncnc(Oc2ccccc2SC)c1F` [Example 23], in “physchem” (logP), the chromatographic logP was 3.07.

The compound `CNC(=O)/C(=N/OC)c1ccc(F)cc1Oc1ncnc(Oc2ccccc2OC(F)(F)F)c1F` [Example 35] gave a chromatographic logP in the series “physchem” (logP) of 3.27. Besides, the pest or weed control at 100 g/ha in the series with Sphaerotheca fuliginea was not below 98%; in series [1], not below 97%; in series [2] it was not below 82%.

`CO/N=C(/C(=O)OC)c1c(F)cccc1CO/N=C1\CCc2ccc(OC)cc21` [Example 49] showed a chromatographic logP in “physchem” (logP) of 3.65.

In turn, `CNC(=O)/C(=N/OC)c1ccc(F)cc1Oc1nc(C)c(Cl)c(OCC(F)(F)C(F)(F)F)n1` [Example 13] gave a chromatographic logP in “physchem” (logP) of 3.58.

In turn, `CNC(=O)/C(=N/OC)c1ccc(F)cc1Oc1ncnc(Oc2cccc(F)c2)c1F` [Example 17] showed a chromatographic logP in the series “physchem” (logP) of 3.07.

`CNC(=O)/C(=N/OC)c1c(F)cccc1CO/N=C(C)/C(=N\OC)c1ccc(C)cc1` [Example 58] yielded a chromatographic logP in “physchem” (logP) of 3.71.

In the series “physchem” (logP), `CNC(=O)/C(=N/OC)c1ccc(F)cc1Oc1ncnc(Oc2cc(C)ccc2Cl)c1F` [Example 25] displayed a chromatographic logP of 3.45.

Take `CNC(=O)/C(=N/OC)c1ccc(F)cc1Oc1ncnc(Oc2cccc(Cl)c2Cl)c1F` [Example 33]: the chromatographic logP in the series “physchem” (logP) was 3.53. Also, the pest or weed control at 100 g/ha in the series with Sphaerotheca fuliginea was not below 98%; in series [1] it was not below 97%; in the series on Phytophthora infestans it was not below 86%; in series [2], not below 82%.

With `CO/N=C(/C(=O)OC)c1c(O)cccc1F` [Example (II-1), methyl (2-fluoro-6-hydroxyphenyl)methoxyiminoacetate], the chromatographic logP in “physchem” (pH 2, log P (pH 2)) was 1.67.

For `CNC(=O)/C(=N/OC)c1ccc(F)cc1Oc1ncnc(Oc2ccc(SC)cc2)c1F` [Example 24], in “physchem” (logP), the chromatographic logP turned out to be 3.24.

Regarding `CNC(=O)/C(=N/OC)c1ccc(F)cc1Oc1ncnc(Oc2ccccc2Br)c1F` [Example 34], the chromatographic logP in “physchem” (logP) was determined as 3.22.

In the case of `CNC(=O)/C(=N/OC)c1ccc(F)cc1Oc1ncnc(Oc2ccc(OC)cc2Cl)c1F` [Example 29], the chromatographic logP in the series “physchem” (logP) is 3.2.

As to `CNC(=O)/C(=N/OC)c1c(F)cccc1CO/N=C(C)/C(=N\OC)c1ccc(F)cc1F` [Example 55], the chromatographic logP in the series “physchem” (logP) was found to be 3.57.

With `CNC(=O)/C(=N/OC)c1ccc(F)cc1Oc1ncnc(Oc2ccc(OC(F)(F)F)cc2C)c1F` [Example 38], in “physchem” (logP), the chromatographic logP is 3.71.

The compound `CNC(=O)/C(=N/OC)c1ccc(F)cc1Oc1ncnc(Oc2cccc(C(F)(F)F)c2)c1F` [Example 30] gave a chromatographic logP in “physchem” (logP) of 3.46.

Regarding `CNC(=O)/C(=N/OC)c1ccc(F)cc1Oc1ncnc(Oc2ccccc2OC)c1F` [Example 20], the chromatographic logP in the series “physchem” (logP) turned out to be 2.82.

For `CNC(=O)/C(=N/OC)c1ccc(F)cc1Oc1ncnc(Oc2cccc(OC(F)(F)F)c2)c1F` [Example 36], the chromatographic logP in “physchem” (logP) was 3.46.

The compound `COC(=O)C(=O)c1c(F)cccc1OC1CCCCO1` (stereo not drawn) [Example (XIII-1), methyl [2-fluoro-6-(tetrahydropyran-2-yloxy)phenyl]oxoacetate] yielded a chromatographic logP in the series “physchem” (pH 2, log P (pH 2)) of 2.78.

For the compound `CNC(=O)/C(=N/OC)c1c(F)cccc1CO/N=C(C)/C(=N\OC)c1ccc(F)cc1` [Example 59], the chromatographic logP in the series “physchem” (logP) was 3.5.

In the series “physchem” (pH 2, log P (pH 2)), `COC(=O)C(=O)c1ccc(F)cc1O` [Example (XIV-1), methyl (4-fluoro-2-hydroxyphenyl)oxo-acetate] gave a chromatographic logP of 2.1.

`CO/N=C(/C(=O)OC)c1c(C)cccc1F` [Example (XVIII-1), methyl (2-fluoro-6-methylphenyl)methoxyiminoacetate]: the chromatographic logP in the series “physchem” (pH 2, log P (pH 2)) turned out to be 2.43.

The compound `CNC(=O)/C(=N/OC)c1c(F)cccc1CO/N=C1\CCc2ccc(OC)cc21` [Example 52] registered a chromatographic logP in “physchem” (logP) of 3.08.

In turn, `CNC(=O)/C(=N/OC)c1ccc(F)cc1Oc1ncnc(Oc2ccc(SC(F)(F)F)cc2)c1F` [Example 39] gave a chromatographic logP in the series “physchem” (logP) of 3.75.

Take `CNC(=O)/C(=N/OC)c1ccc(F)cc1Oc1ncnc(Oc2ccccc2C#N)c1F` [Example 11]: in the series “physchem” (logP), the chromatographic logP is 2.68.

Turning to `CNC(=O)/C(=N/OC)c1ccc(F)cc1Oc1ncnc(Oc2ccc(F)cc2Cl)c1F` [Example 26], in “physchem” (logP), the chromatographic logP came out at 3.27.

Turning to `CNC(=O)/C(=N/OC)c1ccc(F)cc1Oc1ncnc(Oc2cccc(Cl)c2)c1F` [Example 21], the chromatographic logP in the series “physchem” (logP) was determined as 3.31. This chromatographic logP and that of the compound before are within 0.2 log units of each other.

As to `CNC(=O)/C(=N/OC)c1ccc(F)cc1Oc1ncnc(Oc2cccc(C#N)c2)c1F` [Example 18], the chromatographic logP in “physchem” (logP) is 2.71.

In the case of `CNC(=O)/C(=N/OC)c1c(O)cccc1F` [Example (II-2), 2-(2-fluoro-6-hydroxyphenyl)-2-methoxyimino-N-methylacetamide], the chromatographic logP in the series “physchem” (pH 2, log P (pH 2)) came to 1.18.

In turn, `CNC(=O)/C(=N/OC)c1ccc(F)cc1Oc1ncnc(Oc2ccc(C(F)(F)F)cc2)c1F` [Example 32] showed a chromatographic logP in “physchem” (logP) of 3.49.

In the series “physchem” (logP), `CNC(=O)/C(=N/OC)c1ccc(F)cc1Oc1ncnc(Oc2ccccc2OC(C)C)c1F` [Example 27] displayed a chromatographic logP of 3.32.
